Values quoted from earlier work in patent US8007545B2, “Deodorant compositions” (Kao Corporation, priority 2005, dated 2011).

Details: 1-octanol/water; actual database value or C log P

SMILES	log P
CCCCCCOC(CO)COCC(O)CO (stereo not drawn) [b3-1, Glyceryl ether monohexyl ether]	1.1
CCCCOCCOCCO [b3-3, Diethylene glycol monobutyl ether]	0.6
CCCCC(CC)COCC(O)CO (stereo not drawn) [b3-2, 2-Ethylhexyl monoglyceryl ether]	2.0
